Measured values taken from the supplement of paper PMC11061612.

Assays:
Capivasertib = compound: C1CN(CCC1(C(=O)N[C@@H](CCO)C2=CC=C(C=C2)Cl)N)C3=NC=NC4=C3C=CN4 [Capivasertib]
Method in brief: (§1)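 Cancer cell lines in 1536-well plates (7.5 μl DMEM/F12 or RPMI, 10% FBS) were held 24 hours at 37°C and 5% CO2 and then dosed for 72 hours at a final DMSO of typically 0.2%. Viability was taken from CellTiter-Glo 2.0 luminescence, scaled between blank-well and DMSO-well means. Curves were fitted as two-parameter logistic models with a non-linear mixed effects model, from which the single-agent IC50 was taken.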

AZD1775 = compound: C=CCn1c(=O)c2cnc(Nc3ccc(N4CCN(C)CC4)cc3)nc2n1-c1cccc(C(C)(C)O)n1 [AZD1775]; conditions: max 3 µM
Method in brief: as §1

Trametinib = compound: CC(=O)Nc1cccc(-n2c(=O)n(C3CC3)c(=O)c3c(Nc4ccc(I)cc4F)n(C)c(=O)c(C)c32)c1 [Trametinib]; conditions: max 1 µM
Method in brief: as §1

Palbociclib = compound: CC(=O)c1c(C)c2cnc(Nc3ccc(N4CCNCC4)cn3)nc2n(C2CCCC2)c1=O [Palbociclib]; conditions: max 10 µM
Method in brief: as §1

AZD1390 = compound: CC(C)n1c(=O)n(C)c2cnc3cc(F)c(-c4ccc(OCCCN5CCCCC5)nc4)cc3c21 [AZD1390]; conditions: max 0.3 µM
Method in brief: as §1

Venetoclax = compound: CC1(C)CCC(CN2CCN(c3ccc(C(=O)NS(=O)(=O)c4ccc(NCC5CCOCC5)c([N+](=O)[O-])c4)c(Oc4cnc5[nH]ccc5c4)c3)CC2)=C(c2ccc(Cl)cc2)C1 [Venetoclax]; conditions: max 1 µM
Method in brief: as §1

Dasatinib = compound: CC1=C(C(=CC=C1)Cl)NC(=O)C2=CN=C(S2)NC3=CC(=NC(=N3)C)N4CCN(CC4)CCO [Dasatinib]; conditions: max 2 µM
Method in brief: as §1

SG3199 = compound: CC1=CN2[C@@H](C1)C=NC3=CC(=C(C=C3C2=O)OC)OCCCCCOC4=C(C=C5C(=C4)N=C[C@@H]6CC(=CN6C5=O)C)OC [SG3199]; conditions: max 0.001 µM
Method in brief: as §1

AZD2811 = compound: CCN(CCO)CCCOc1ccc2c(Nc3cc(CC(=O)Nc4cccc(F)c4)[nH]n3)ncnc2c1 [AZD2811]; conditions: max 1 µM
Method in brief: as §1

SN-38 = compound: CCc1c2c(nc3ccc(O)cc13)-c1cc3c(c(=O)n1C2)COC(=O)[C@]3(O)CC [SN-38]; conditions: max 0.3 µM
Method in brief: as §1

AZD0156 = compound: CN(C)CCCOc1ccc(-c2ccc3ncc4c(c3c2)n(C2CCOCC2)c(=O)n4C)cn1 [AZD0156]; conditions: max 3 µM
Method in brief: as §1

AZD4320 = compound: CN(CC[C@H](CSC1=CC=CC=C1)NC2=C(C=C(C=C2)S(=O)(=O)NC(=O)C3=CC=C(C=C3)N4CCC(CC4)[C@H](C5=CC=CC=C5C6=CC=C(C=C6)Cl)O)S(=O)(=O)C(F)(F)F)CCO [AZD4320]; conditions: max 1 µM
Method in brief: as §1

Alisertib = compound: COc1cc(Nc2ncc3c(n2)-c2ccc(Cl)cc2C(c2c(F)cccc2OC)=NC3)ccc1C(=O)O [Alisertib]; conditions: max 10 µM
Method in brief: as §1

Gefitinib = compound: COc1cc2ncnc(Nc3ccc(F)c(Cl)c3)c2cc1OCCCN1CCOCC1 [Gefitinib]; conditions: max 10 µM
Method in brief: as §1

Prexasertib = compound: COc1cccc(OCCCN)c1-c1cc(Nc2cnc(C#N)cn2)n[nH]1 [Prexasertib]; conditions: max 1 µM
Method in brief: as §1

Doxorubicin = compound: COc1cccc2c1C(=O)c1c(O)c3c(c(O)c1C2=O)C[C@@](O)(C(=O)CO)C[C@@H]3O[C@H]1C[C@H](N)[C@H](O)[C@H](C)O1 [Doxorubicin]; conditions: max 1 µM
Method in brief: as §1

AZD5153 = compound: COc1nnc2ccc(N3CCC(c4ccc(OCCN5CCN(C)C(=O)[C@H]5C)cc4)CC3)nn12 [AZD5153]; conditions: max 1 µM
Method in brief: as §1

Lapatinib = compound: CS(=O)(=O)CCNCc1ccc(-c2ccc3ncnc(Nc4ccc(OCc5cccc(F)c5)c(Cl)c4)c3c2)o1 [Lapatinib]; conditions: max 10 µM
Method in brief: as §1

AZD8186 = compound: C[C@@H](Nc1cc(F)cc(F)c1)c1cc(C(=O)N(C)C)cc2c(=O)cc(N3CCOCC3)oc12 [AZD8186]; conditions: max 3 µM
Method in brief: as §1

Crizotinib = compound: C[C@@H](Oc1cc(-c2cnn(C3CCNCC3)c2)cnc1N)c1c(Cl)ccc(F)c1Cl [Crizotinib]; conditions: max 10 µM
Method in brief: as §1

Savolitinib = compound: C[C@@H](c1ccc2nccn2c1)n1nnc2ncc(-c3cnn(C)c3)nc21 [Savolitinib]; conditions: max 1 µM
Method in brief: as §1

AZD6738 = compound: C[C@@H]1COCCN1C2=NC(=NC(=C2)C3(CC3)[S@](=N)(=O)C)C4=C5C=CNC5=NC=C4 [AZD6738]; conditions: max 10 µM
Method in brief: as §1

AZD5991 = compound: Cc1c2c(nn1C)CSCc1cc(n(C)n1)CSc1cc(c3ccccc3c1)OCCCc1c(C(=O)O)n(C)c3c-2c(Cl)ccc13 [AZD5991]; conditions: max 1 µM
Method in brief: as §1

AZD7648 = compound: Cc1cc2ncnn2cc1Nc1ncc2c(n1)n(C1CCOCC1)c(=O)n2C [AZD7648]; conditions: max 10 µM
Method in brief: as §1

Taselisib = compound: Cc1nc(-c2cn3c(n2)-c2ccc(-c4cnn(C(C)(C)C(N)=O)c4)cc2OCC3)n(C(C)C)n1 [Taselisib]; conditions: max 10 µM
Method in brief: as §1

Selumetinib = compound: Cn1cnc2c(F)c(Nc3ccc(Br)cc3Cl)c(C(=O)NOCCO)cc21 [Selumetinib]
Method in brief: as §1

Olaparib = compound: O=C(c1cc(Cc2n[nH]c(=O)c3ccccc23)ccc1F)N1CCN(C(=O)C2CC2)CC1 [Olaparib]; conditions: max 10 µM
Method in brief: as §1

Row | Cell Line | IC50, cell viability 72 h (Capivasertib; max 10 µM) [µM] | IC50, cell viability 72 h (AZD1775) [µM] | IC50, cell viability 72 h (Trametinib) [µM] | IC50, cell viability 72 h (Palbociclib) [µM] | IC50, cell viability 72 h (AZD1390) [µM] | IC50, cell viability 72 h (Venetoclax) [µM] | IC50, cell viability 72 h (Dasatinib) [µM] | IC50, cell viability 72 h (SG3199) [µM] | IC50, cell viability 72 h (AZD2811) [µM] | IC50, cell viability 72 h (SN-38) [µM] | IC50, cell viability 72 h (AZD0156) [µM] | IC50, cell viability 72 h (AZD4320) [µM] | IC50, cell viability 72 h (Alisertib) [µM] | IC50, cell viability 72 h (Gefitinib) [µM] | IC50, cell viability 72 h (Prexasertib) [µM] | IC50, cell viability 72 h (Doxorubicin) [µM] | IC50, cell viability 72 h (AZD5153) [µM] | IC50, cell viability 72 h (Lapatinib) [µM] | IC50, cell viability 72 h (AZD8186) [µM] | IC50, cell viability 72 h (Crizotinib) [µM] | IC50, cell viability 72 h (Savolitinib) [µM] | IC50, cell viability 72 h (AZD6738) [µM] | IC50, cell viability 72 h (AZD5991) [µM] | IC50, cell viability 72 h (AZD7648) [µM] | IC50, cell viability 72 h (Taselisib) [µM] | IC50, cell viability 72 h (Selumetinib; max 10 µM) [µM] | IC50, cell viability 72 h (Olaparib) [µM] | IC50, cell viability 72 h (Capivasertib; max 3 µM) [µM] | IC50, cell viability 72 h (Selumetinib; max 3 µM) [µM]
1 | HDQ-P1 (Breast Carcinoma) | > 10 | 0.565 | > 1 | > 10 | > 0.3 | > 1 | 0.103 | > 0.001 | > 1 | 0.0958 | > 3 | > 1 | > 10 | > 10 | 0.53 | > 1 | > 1 | > 10 | > 3 | > 10 | > 1 | > 10 | > 1 | > 10 | 4.57 | > 10 | > 10 | – | –
2 | KARPAS-45 (T-Lymphoblastic Leukemia) | 3.21 | 0.243 | > 1 | 0.624 | > 0.3 | > 1 | 0.937 | > 0.001 | 0.00687 | > 0.3 | > 3 | 0.0521 | 0.0863 | 9.06 | 0.0336 | > 1 | 0.0251 | 4.37 | > 3 | 1.17 | > 1 | 3.14 | 0.0931 | > 10 | 1.45 | > 10 | > 10 | – | –
3 | KYSE-180 (Esophageal Squamous Cell Carcinoma) | > 10 | 0.44 | > 1 | > 10 | > 0.3 | > 1 | 1.73 | > 0.001 | > 1 | > 0.3 | > 3 | > 1 | > 10 | > 10 | 0.0223 | > 1 | > 1 | > 10 | > 3 | > 10 | > 1 | 5.36 | 0.642 | > 10 | 4.52 | > 10 | > 10 | – | –
4 | NCI-H847 (Small Cell Lung Carcinoma) | – | 0.143 | > 1 | – | – | > 1 | – | > 0.001 | 0.0584 | 0.016 | > 3 | 0.0156 | 0.0101 | – | 0.0151 | 0.281 | – | – | 1.95 | – | – | 0.901 | 0.665 | 5.2 | 2.33 | – | 6.86 | > 3 | > 3
